Laboratory results published in patent US20180050993A1, “NOVEL FLUORINATED DERIVATIVES AS EGFR INHIBITORS USEFUL FOR TREATING CANCERS” (Trillium Therapeutics Inc., priority 2015, published 2018).
Counter-ions that a name gives are not always drawn. Like-named read-outs stand apart in the source and are kept apart here.

What was measured:
[1] = Mouse liver microsomal stability; type: in vitro ADME; conditions: stability in pooled mouse (CD-1, male) liver microsomes 0.5 mg/ml, compound 1 μM, parent compound by LC/MS, in % (unit assumed)
Description: (§1) Working stocks were initially diluted to a concentration of 40.0 μM in 0.1 M potassium phosphate buffer before addition to the reaction vials. Pooled mouse (CD-1, male) or human (50 donors) liver microsomes were utilized at a final concentration of 0.5 mg/ml. Duplicate wells were used for each time point (0 and 30 minutes). Reactions were carried out at 37° C. in a shaker, and the final concentration of DMSO was kept constant at 0.01%. The final volume for each reaction was 100 μL, which includes the addition of an NADPH-Regeneration solution (NRS) mix. This NRS mix is comprised of glucose 6-phosphate dehydrogenase (0.4 U/mL), NADP+ (1.3 mM), MgCl2 (3.3 mM), and glucose 6-phosphate (3.3 mM) in assay mixtures. Upon completion of the 30 minute time point, reactions were terminated by the addition of 1.5-volumes (150 μL) of ice-cold, acetonitrile with 0.5% formic acid and internal standard. Samples were then centrifuged at 4,000 rpm for 10 minutes to remove debris and precipitated protein. Approximately 150 μL of supernatant was subsequently transferred to a new 96 well microplate for LC/MS analysis.
(§2) Narrow-window mass extraction LC/MS analysis was performed for all samples using a Waters Xevo quadrupole time-of-flight (QTof) mass spectrometer and an ACQUITY UPLC system, to determine relative peak areas of parent compound.
(§3) Human and mouse liver microsomes contain a wide variety of drug metabolizing enzymes and are commonly used to support in vitro ADME (absorption, distribution, metabolism and excretion) studies. These microsomes are used to examine the potential first-pass metabolism by-products of orally administered drugs. Representative compounds of the application were evaluated for their stability in human and mouse liver microsomes.

[2] = Human liver microsomal stability; type: in vitro ADME; conditions: stability in pooled human (50 donors) liver microsomes 0.5 mg/ml, compound 1 μM, parent compound by LC/MS
Description: as §1, §2, §3

EGFR = target: T1, EGFR (Homo sapiens, UniProt P00533); assay: Kinase HotSpot profiling (Reaction Biology), 33P-ATP filter-binding; type: biochemical; conditions: WT EGFR
T1 construct: purchased Reaction Biology
T1 sequence (P00533 25-1210): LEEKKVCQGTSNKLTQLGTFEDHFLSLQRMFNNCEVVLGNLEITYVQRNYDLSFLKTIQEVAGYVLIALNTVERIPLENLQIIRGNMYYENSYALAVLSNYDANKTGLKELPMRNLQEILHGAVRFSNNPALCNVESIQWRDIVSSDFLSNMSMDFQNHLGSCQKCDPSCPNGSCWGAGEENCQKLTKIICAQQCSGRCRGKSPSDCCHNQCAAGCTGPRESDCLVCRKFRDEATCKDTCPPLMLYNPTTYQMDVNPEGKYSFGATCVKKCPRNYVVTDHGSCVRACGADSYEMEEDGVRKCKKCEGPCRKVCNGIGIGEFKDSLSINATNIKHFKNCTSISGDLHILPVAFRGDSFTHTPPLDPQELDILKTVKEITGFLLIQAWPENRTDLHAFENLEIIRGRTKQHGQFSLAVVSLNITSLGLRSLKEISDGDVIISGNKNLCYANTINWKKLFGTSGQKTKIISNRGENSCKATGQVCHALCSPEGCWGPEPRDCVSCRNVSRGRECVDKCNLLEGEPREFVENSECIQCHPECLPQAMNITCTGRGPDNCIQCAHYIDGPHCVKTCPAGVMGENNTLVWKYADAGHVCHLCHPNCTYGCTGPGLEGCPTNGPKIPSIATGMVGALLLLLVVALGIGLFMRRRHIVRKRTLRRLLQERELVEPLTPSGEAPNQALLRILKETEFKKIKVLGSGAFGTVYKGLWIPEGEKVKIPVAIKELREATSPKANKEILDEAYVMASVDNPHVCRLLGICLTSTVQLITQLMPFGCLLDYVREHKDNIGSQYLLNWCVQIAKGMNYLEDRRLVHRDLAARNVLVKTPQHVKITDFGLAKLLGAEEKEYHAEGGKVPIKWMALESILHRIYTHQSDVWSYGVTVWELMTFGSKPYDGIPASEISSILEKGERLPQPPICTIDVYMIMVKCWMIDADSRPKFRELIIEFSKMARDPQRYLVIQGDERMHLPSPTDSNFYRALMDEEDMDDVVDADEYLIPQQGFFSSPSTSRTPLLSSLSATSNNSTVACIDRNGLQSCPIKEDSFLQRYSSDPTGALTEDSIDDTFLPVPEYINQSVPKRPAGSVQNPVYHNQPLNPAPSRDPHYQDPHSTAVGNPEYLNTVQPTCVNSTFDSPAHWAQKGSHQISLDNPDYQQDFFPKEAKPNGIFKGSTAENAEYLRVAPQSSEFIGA
Description: (§4) Base Reaction buffer; 20 mM Hepes (pH 7.5), 10 mM MgCl2, 1 mM EGTA, 0.02% Brij35, 0.02 mg/ml BSA, 0.1 mM Na3VO4, 2 mM DTT, 1% DMSO
(§5) *Required cofactors are added individually to each kinase reaction
(§6) 1. The indicated substrate was prepared in fresh Base Reaction Buffer.
(§7) 2. Any required cofactors were added to the substrate solution above.
(§8) 3. Indicated kinase was added into the substrate solution and gently mixed.
(§9) 4. Compounds in DMSO were added into the kinase reaction mixture by Acoustic technology (Echo550; nanoliter range) and incubated for 20 minutes at room temperature.
(§10) 5. 33P-ATP (specific activity 10 μCi/μl) was added into the reaction mixture to initiate the reaction.
(§11) 6. The kinase reaction was incubated for 2 hours at room temperature
(§12) 7. Reactions were spotted onto P81 ion exchange paper.
(§13) 8. Kinase activity was detected by filter-binding method.
(§14) Representative compounds of Formula I were evaluated against WT EGFR and mutant EGFR (L858R and L858R, T790M) kinases. IC50 concentrations are illustrated in Table 9.

EGFR (L858R) = target: T2, EGFR (L858R) (Homo sapiens, UniProt P00533, L858R); assay: as above; type: biochemical; conditions: mutant EGFR L858R
T2 construct: purchased Reaction Biology
T2 sequence (P00533 25-1210 L858R): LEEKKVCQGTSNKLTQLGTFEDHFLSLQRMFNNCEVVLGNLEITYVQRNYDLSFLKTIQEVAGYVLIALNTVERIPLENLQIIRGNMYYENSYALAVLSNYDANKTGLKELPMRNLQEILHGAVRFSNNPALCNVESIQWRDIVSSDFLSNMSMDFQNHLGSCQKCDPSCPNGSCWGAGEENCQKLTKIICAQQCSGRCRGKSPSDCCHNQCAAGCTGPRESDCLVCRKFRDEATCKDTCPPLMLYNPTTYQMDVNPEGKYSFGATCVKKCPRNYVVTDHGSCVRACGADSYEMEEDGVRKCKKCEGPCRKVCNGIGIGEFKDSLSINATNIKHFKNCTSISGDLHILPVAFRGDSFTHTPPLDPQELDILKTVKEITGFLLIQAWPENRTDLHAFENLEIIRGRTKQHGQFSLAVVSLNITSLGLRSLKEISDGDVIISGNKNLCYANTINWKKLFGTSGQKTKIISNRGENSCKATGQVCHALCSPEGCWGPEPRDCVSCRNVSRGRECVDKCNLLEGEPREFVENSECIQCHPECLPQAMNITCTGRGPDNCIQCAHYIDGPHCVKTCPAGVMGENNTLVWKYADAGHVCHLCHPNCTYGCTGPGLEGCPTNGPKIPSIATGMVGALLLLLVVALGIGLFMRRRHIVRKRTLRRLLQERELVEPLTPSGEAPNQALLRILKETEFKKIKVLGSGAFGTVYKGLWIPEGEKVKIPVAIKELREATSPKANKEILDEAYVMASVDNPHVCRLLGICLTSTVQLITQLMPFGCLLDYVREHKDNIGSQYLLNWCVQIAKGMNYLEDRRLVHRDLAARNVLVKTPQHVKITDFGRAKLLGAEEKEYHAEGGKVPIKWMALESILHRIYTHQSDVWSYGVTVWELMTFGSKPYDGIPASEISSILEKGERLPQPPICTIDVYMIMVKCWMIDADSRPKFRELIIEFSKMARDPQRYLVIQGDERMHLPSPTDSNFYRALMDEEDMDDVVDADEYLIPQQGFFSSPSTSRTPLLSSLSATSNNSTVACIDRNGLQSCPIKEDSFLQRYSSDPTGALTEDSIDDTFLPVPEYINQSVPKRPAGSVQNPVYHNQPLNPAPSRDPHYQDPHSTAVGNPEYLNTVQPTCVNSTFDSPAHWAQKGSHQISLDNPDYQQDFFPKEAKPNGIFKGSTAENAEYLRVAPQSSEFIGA
Description: as §4, §5, §6, §7, §8, §9, §10, §11, §12, §13, §14

P-gp = target: T3, P-gp (Homo sapiens, UniProt P08183); assay: Evaluation of P-gp efflux in Caco-2 cell monolayers; type: in vitro ADME;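 note: Caco-2 monolayers dosed apically or basolaterally with test compound at 5 µM in HBSS with HEPES and glucose, 37 °C, donor and receiver sampled after 120 min, LC/MS peak areas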
T3 construct: host or cells: Caco-2 (C2BBe1)
T3 sequence (P08183 whole entry): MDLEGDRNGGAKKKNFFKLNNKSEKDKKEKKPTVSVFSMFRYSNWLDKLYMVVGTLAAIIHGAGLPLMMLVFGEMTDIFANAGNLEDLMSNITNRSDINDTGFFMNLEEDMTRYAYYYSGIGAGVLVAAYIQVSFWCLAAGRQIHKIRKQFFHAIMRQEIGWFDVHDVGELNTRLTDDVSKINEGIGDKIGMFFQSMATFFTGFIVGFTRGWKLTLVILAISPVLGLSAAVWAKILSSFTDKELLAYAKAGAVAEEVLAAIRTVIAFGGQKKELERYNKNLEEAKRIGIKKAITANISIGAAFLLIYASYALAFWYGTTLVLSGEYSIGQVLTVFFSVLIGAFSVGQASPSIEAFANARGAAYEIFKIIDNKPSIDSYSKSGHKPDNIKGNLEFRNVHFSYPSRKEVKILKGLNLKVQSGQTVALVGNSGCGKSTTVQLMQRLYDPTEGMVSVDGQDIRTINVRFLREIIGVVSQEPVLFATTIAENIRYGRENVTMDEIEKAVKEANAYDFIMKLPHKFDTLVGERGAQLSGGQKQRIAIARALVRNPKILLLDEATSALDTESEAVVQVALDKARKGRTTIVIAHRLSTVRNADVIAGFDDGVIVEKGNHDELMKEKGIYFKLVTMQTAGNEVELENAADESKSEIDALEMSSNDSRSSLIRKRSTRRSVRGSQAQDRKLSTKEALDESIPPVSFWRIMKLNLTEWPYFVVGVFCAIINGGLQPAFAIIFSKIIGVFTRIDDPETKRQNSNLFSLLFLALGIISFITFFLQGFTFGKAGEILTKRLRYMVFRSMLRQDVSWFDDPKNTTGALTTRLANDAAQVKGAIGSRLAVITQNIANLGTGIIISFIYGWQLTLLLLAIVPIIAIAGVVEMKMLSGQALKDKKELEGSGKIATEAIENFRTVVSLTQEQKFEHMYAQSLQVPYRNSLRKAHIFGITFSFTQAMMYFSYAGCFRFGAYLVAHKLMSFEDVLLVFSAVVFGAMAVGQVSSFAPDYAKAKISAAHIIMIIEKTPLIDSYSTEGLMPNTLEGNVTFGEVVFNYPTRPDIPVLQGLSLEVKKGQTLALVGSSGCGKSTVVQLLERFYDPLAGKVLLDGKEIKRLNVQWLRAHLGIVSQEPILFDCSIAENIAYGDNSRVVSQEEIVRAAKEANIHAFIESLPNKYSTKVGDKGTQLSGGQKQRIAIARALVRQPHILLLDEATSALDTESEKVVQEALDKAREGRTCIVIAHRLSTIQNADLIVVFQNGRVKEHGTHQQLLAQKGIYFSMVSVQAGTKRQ

[3] = Brain concentrations after PO administration in rat, peak at 8 hours (Table 5); type: in vivo; conditions: brain, PO 50 mg/kg, Table 5 (8 hours)
[4] = Caco-2, pH 7.4, with none (verapamil 0 μM), Caco-2, Verapamil 0 μM, read-out: Recovery (%) AP-BL
[5] = Caco-2, pH 7.4, with none (verapamil 0 μM), Caco-2, Verapamil 0 μM, read-out: Recovery (%) BL-AP
[6] = Caco-2, pH 7.4, with verapamil 100 μM, Caco-2, Verapamil 100 μM, read-out: Recovery (%) AP-BL
[7] = Caco-2, pH 7.4, with verapamil 100 μM, Caco-2, Verapamil 100 μM, read-out: Recovery (%) BL-AP

Fc1c(Cl)cccc1Nc1ncnc2cc(OCCOC(F)F)c(OCCOC(F)F)cc12 [2(Ff), N-(3-chloro-2-fluoro-phenyl)-6,7-bis[2-(difluoromethoxy)ethoxy]quinazolin-4-amine]
MLM (30 min) [1]: 69.6 | HLM (30 min) [2]: 76.4%

Fc1c(Nc2ncnc3cc(OCCOC(F)F)c(OCCOC(F)F)cc23)ccc(Cl)c1Cl [2(a), N-(3,4-dichloro-2-fluoro-phenyl)-6,7-bis[2 (difluoromethoxy)ethoxy]quinazolin-4-amine]
MLM (30 min) [1]: 72.5 | HLM (30 min) [2]: 90.7%

COc1cc2ncnc(Nc3ccc(F)c(Cl)c3F)c2cc1NC(=O)N1CC(OC(F)F)C1 [3(B), N-[4-(3-chloro-2,4-difluoro-anilino)-7-methoxy-quinazolin-6-yl]-3-(difluoromethoxy)azetidine-1-carboxamide]
IC50 (EGFR): 0.0125 nM | IC50 (EGFR (L858R)): 0.0138 nM

COc1cc2ncnc(Nc3ccc(F)c(Cl)c3F)c2cc1OC(=O)N1CCC[C@H](OC(F)F)C1 [2(Pp), [4-(3-chloro-2,4-difluoro-anilino)-7-methoxy-quinazolin-6-yl] (3S)-3-(difluoromethoxy)piperidine-1-carboxylate]
IC50 (EGFR): 0.143 nM | IC50 (EGFR (L858R)): 0.345 nM

Fc1ccc(Nc2ncnc3cc(OCCOC(F)F)c(OCCOC(F)F)cc23)cc1Cl [2(c), N-(3-chloro-4-fluoro-phenyl)-6,7-bis[2-(difluoromethoxy)ethoxy]quinazolin-4-amine]
MLM (30 min) [1]: 94.6 | HLM (30 min) [2]: 88.5%

Fc1cc(F)c(Nc2ncnc3cc(OCCOC(F)F)c(OCCOC(F)F)cc23)c(F)c1 [2(Ll), 6,7-bis[2-(difluoromethoxy)ethoxy]-N-(2,4,6-trifluorophenyl)quinazolin-4-amine]
MLM (30 min) [1]: 39.3 | HLM (30 min) [2]: 82.1%

Fc1cc(Cl)ccc1Nc1ncnc2cc(OCCOC(F)F)c(OCCOC(F)F)cc12 [2(e), N-(4-chloro-2-fluoro-phenyl)-6,7-bis[2-(difluoromethoxy)ethoxy]quinazolin-4-amine]
MLM (30 min) [1]: 67.8 | HLM (30 min) [2]: 89.6%

COc1cc2ncnc(Nc3cccc(Cl)c3F)c2cc1OCCOC(F)F [2(i), N-(3-chloro-2-fluoro-phenyl)-6-[2-(difluoromethoxy)ethoxy]-7-methoxy-quinazolin-4-amine]
MLM (30 min) [1]: 1.5 | HLM (30 min) [2]: 19.7%

FC(F)OCCOc1cc2ncnc(Nc3ccccc3Cl)c2cc1OCCOC(F)F [2(Dd)]
MLM (30 min) [1]: 22.2 | HLM (30 min) [2]: 54.7%

C#Cc1cccc(Nc2ncnc3cc(OCCOC(F)F)c(OCCOC(F)F)cc23)c1F [2(Nn)]
IC50 (EGFR): 0.587 nM | IC50 (EGFR (L858R)): 0.977 nM

Fc1ccccc1Nc1ncnc2cc(OCCOC(F)F)c(OCCOC(F)F)cc12 [2(Hh), 6,7-bis[2-(difluoromethoxy)ethoxy]-N-(2-fluorophenyl)quinazolin-4-amine]
MLM (30 min) [1]: 51.8 | HLM (30 min) [2]: 71.6%

FC(F)OCCOc1cc2ncnc(Nc3ccc(C(F)(F)F)cc3)c2cc1OCCOC(F)F [2(Gg), 6,7-bis[2-(difluoromethoxy)ethoxy]-N-[4-(trifluoromethyl)phenyl]quinazolin-4-amine]
MLM (30 min) [1]: 106.2 | HLM (30 min) [2]: 99.8%

COc1cc2ncnc(Nc3ccc(F)c(Cl)c3F)c2cc1OC(=O)N1CCC(OC(F)F)CC1 [2(Oo), [4-(3-chloro-2,4-difluoro-anilino)-7-methoxy-quinazolin-6-yl] 4-(difluoromethoxy)piperidine-1-carboxylate]
IC50 (EGFR): 0.0205 nM | IC50 (EGFR (L858R)): 0.052 nM

Fc1ccc(Nc2ncnc3cc(OCCOC(F)F)c(OCCOC(F)F)cc23)c(F)c1Cl [2(d), N-(3-chloro-2,4-difluoro-phenyl)-6,7-bis[2-(difluoromethoxy)ethoxy]quinazolin-4-amine]
MLM (30 min) [1]: 90.4 | HLM (30 min) [2]: 83.1%

Fc1cccc(F)c1Nc1ncnc2cc(OCCOC(F)F)c(OCCOC(F)F)cc12 [2(Kk), 6,7-bis[2-(difluoromethoxy)ethoxy]-N-(2,6-difluorophenyl)quinazolin-4-amine]
MLM (30 min) [1]: 43.7 | HLM (30 min) [2]: 77.6%

COc1cc2ncnc(Nc3ccc(F)c(Cl)c3F)c2cc1OCCOC(F)F [2(k), N-(3-chloro-2,4-difluoro-phenyl)-6-[2-(difluoromethoxy)ethoxy]-7-methoxy-quinazolin-4-amine]
MLM (30 min) [1]: 0.7 | HLM (30 min) [2]: 60.4%

CC(C)NCC(O)COc1cccc2ccccc12 (centres unmarked) [Propranolol]
recovery at 120 min, 5 μM (P-gp; [4]): 69.8% | recovery at 120 min, 5 μM (P-gp; [5]): 85% | Papp A→B at 120 min, 5 μM (P-gp; pH 7.4, Caco-2, Verapamil 0 μM): 25.1 ×10⁻⁶ cm/s | Papp B→A at 120 min, 5 μM (P-gp; pH 7.4, Caco-2, Verapamil 0 μM): 16.3 ×10⁻⁶ cm/s | efflux ratio at 120 min, 5 µM (P-gp; pH 7.4, Caco-2, Verapamil 0 μM): 0.65

C#Cc1cccc(Nc2ncnc3cc(OCCOC)c(OCCOC)cc23)c1 [Erlotinib•HCl, N-(3-ethynylphenyl)-6,7-bis(2-methoxyethoxy)quinazolin-4-amine]
Cmax ([3]; Sprague-Dawley): 828 ng/g | Tmax ([3]; Sprague-Dawley): 8 h | AUCInf [3]: 18449 ng·h/g | AUClast [3]: 14522 ng·h/g | recovery at 120 min, 5 μM (P-gp; [4]): 55.5% | recovery at 120 min, 5 μM (P-gp; [5]): 56.2% | recovery at 120 min, 5 μM (P-gp; [6]): 76.8% | recovery at 120 min, 5 μM (P-gp; [7]): 58% | Papp A→B at 120 min, 5 μM (P-gp; pH 7.4, Caco-2, Verapamil 0 μM): 16 ×10⁻⁶ cm/s | Papp B→A at 120 min, 5 μM (P-gp; pH 7.4, Caco-2, Verapamil 0 μM): 13.9 ×10⁻⁶ cm/s

C#Cc1cccc(Nc2ncnc3cc(OCCOC(F)F)c(OCCOC(F)F)cc23)c1 [2(b), 6,7-bis[2-(difluoromethoxy)ethoxy]-N-(3-ethynylphenyl)quinazolin-4-amine]
MLM (30 min) [1]: 94.3 | HLM (30 min) [2]: 96.4%

COc1cc2ncnc(Nc3ccc(F)c(Cl)c3F)c2cc1NC(=O)N1CCC(COC(F)F)CC1 [3(A), N-[4-(3-chloro-2,4-difluoro-anilino)-7-methoxy-quinazolin-6-yl]-4-(difluoromethoxymethyl)piperidine-1-carboxamide]
IC50 (EGFR): 0.0298 nM | IC50 (EGFR (L858R)): 0.0891 nM

C[C@H]1O[C@@H](O[C@H]2[C@@H](O)C[C@H](O[C@H]3[C@@H](O)C[C@H](O[C@H]4CC[C@@]5(C)[C@H](CC[C@@H]6[C@@H]5C[C@@H](O)[C@]5(C)[C@@H](C7=CC(=O)OC7)CC[C@]65O)C4)O[C@@H]3C)O[C@@H]2C)C[C@H](O)[C@@H]1O [Digoxin]
recovery at 120 min, 5 μM (P-gp; [4]): 76.9% | recovery at 120 min, 5 μM (P-gp; [5]): 84.3% | recovery at 120 min, 5 μM (P-gp; [6]): 90.3% | recovery at 120 min, 5 μM (P-gp; [7]): 99.7% | Papp A→B at 120 min, 5 μM (P-gp; pH 7.4, Caco-2, Verapamil 0 μM): 0.64 ×10⁻⁶ cm/s | Papp B→A at 120 min, 5 μM (P-gp; pH 7.4, Caco-2, Verapamil 0 μM): 15.8 ×10⁻⁶ cm/s

FC(F)OCCOc1cc2ncnc(Nc3ccccc3C(F)(F)F)c2cc1OCCOC(F)F [2(Ee), 6,7-bis[2-(difluoromethoxy)ethoxy]-N-[2-(trifluoromethyl)phenyl]quinazolin-4-amine]
MLM (30 min) [1]: 11.8 | HLM (30 min) [2]: 49.2%
